# Reference: US12053465B2, “KCC2 expression enhancing compounds and uses thereof” (Whitehead Institute for Biomedical Research, priority 2017, dated 2024)
# Where a SMILES comes first, the peptide text is derived from it. [ ]: non-standard residue; d: D form. The star is where a group is joined. Sta = CC(C)C[C@H](N)[C@@H](O)CC(=O)O; Isovaleryl = CC(C)CC(=O)*
# Assays:
# [1] = system: KCC2 expression (KCC2-2A-luciferase reporter); test: KCC2-2A-luciferase reporter compound screening with RTT KCC2 reporter neurons; assay type: cell-based, human; details: MECP2-null RTT human KCC2 reporter neurons; LINCS, SMART, ICCB libraries; Luc/CTG normalized to in-plate DMSO; hit = B score >3
# Method: The RTT KCC2-2A-luciferase reporter neurons were treated with the test compounds from the LINCS kinase inhibitor library and IRSF SMART compound library and incubated before being lysed. The cell lysate was divided into two parts to measure luciferase signal (KCC2 translation) and Cell-Titer Glow (CTG, amount of ATP). The luciferase signal was normalized to CTG for each well, and the Luc/CTG ratio was normalized to the in-plate DMSO negative control to calculate fold change ratio.
# Additional screens for reporter activation in the MECP2-null RTT human KCC2 reporter neurons (isogenic to the WT reporter cells used above) were performed with the LINCS and SMART libraries as well as the ICCB known bioactive library and identified hits as compounds with B score >3.
# The cells were dissociated with Accutase and resuspended in 10 ml neuronal differentiation medium to count cells. The cells were then diluted to the final density of 200,000 to 500,000 cells/ml. Matrigel was added to the cell suspension at a dilution ratio of 1:300 to promote cell adhesion after plating. AraC was added to cell suspension at the concentration of 2 μM to inhibit cell division. The cells were plated into 96-well plates with an automated cell seeding machine using the following protocol: The neuron flask was washed with PBS. The neurons were digested off the plate with Accutase for 30 minutes at 37° C. Next, the dissociated cells were collected and spun down at 750 rpm for 5 minutes. The cell pellet was dissociated by gentle trituration with P1000 pipet and the cells were resuspended with 10 ml of neuronal medium. Then, the cells were filtered through a 40 μm cell strainer (Falcon) to get rid of clumps. The resulting single-cell suspension was counted using a Countess automated cell counter (Invitrogen Countess Automated Cell Counter, Catalog no. C10227). The neurons were resuspended with neuronal medium to 10× of the destination density (100,000 cells to 400,000 cells per ml). The cells were plated with a multichannel pipette, or proceeded to the machine-plating protocol described below:
# The day after cell seeding, small molecule compounds from the IRSF (International Rett Syndrome Foundation) library were prepared at a concentration of 1 mM and dispensed into a blank V-bottomed test plates at 2 μl per well. Compound solvent DMSO was included in every plate as control. Using a liquid handling robot, about 80 μl of culture medium were discarded. Neuronal medium in the volume of 200 μl was added to the V-bottom test plate that contained 2 μl of 1 mM compounds, and mixed with compounds by pipetting up-and-down 3 times. The medium that contained the 10 μM compounds was then applied to the neuronal cell culture and incubated for 2 weeks before cell lysis and luciferase assay were performed.
# (§1) The cells were dissociated with Accutase, resuspended in 10 ml neuronal differentiation medium to count cells. the final cell seeding density was 20 k-40 k cells per well for 96-well plates, and ˜10 k cells per well for 384-well plates. Matrigel was added to the cell suspension at a dilution ratio of 1:300 to promote cell adhesion after plating. AraC were added to the cell suspension at the concentration of 0.5 μM to inhibit astroglial cell division. The cells were dispensed into 96-well or 384-well plates (Coming) using a BioTek EL406 plate dispenser. […] The neurons were incubated with the compounds at 37° C./5% CO2 for a week before the luciferase assay.
# The cells used for luciferase assay were KCC2 reporter neurons differentiated for 4 weeks, and treated with drug in 96-well format for 2 weeks. Cell density was between 20 k-40 k cells per well.
# On the day of the luciferase assay, the cells were washed with PBS for two times, and 100 μl of cell lysis buffer was applied to the washed cells. The cell plates were transferred to a rocker to shake for 10 minutes in order to fully lyse the cells.
# [2] = system: KCC2 expression (KCC2-2A-luciferase reporter); test: KCC2-2A-luciferase reporter compound screening with wild type KCC2 reporter neurons; assay type: cell-based; details: WT human KCC2 reporter neurons; LINCS 0.5 μM, IRSF/SMART and ICCB 10 μM, one week; Luc/CTG normalized to in-plate DMSO; hit = B score >3
# Source text: In addition, CRISPR/Cas9 genome editing technology was utilized to insert a 2A-luciferase reporter gene directly before the stop codon of the endogenous KCC2 locus in human ES cells, thus creating wild type (WT) cells isogenic to the MECP2-null RTT human KCC2 reporter neurons. KCC2 expression reporter human neurons were differentiated from the gene-targeted ES cells and utilized as the substrate for unbiased compound screening (FIG. 6A; see also FIG. 1A).
# Gene-targeted KCC2 reporter cells were used in a HTS pipeline to screen for small molecule compounds that enhance KCC2 gene expression (FIG. 1B; note that reporter neurons were adapted to 384 well format for some screens, and the same workflow was used both for WT KCC2 reporter neurons and RTT KCC2 reporter neurons). Six replicate screens were performed in WT KCC2 reporter neurons using the LINCS and SMART libraries as well as the ICCB known bioactive library (FIG. 6B).
# as §1
# For some screens, on the day of the luciferase assay, the cells were washed with PBS three times using a BioTek EL406 plate washer. Cell lysis buffer (Promega, E1941, 1:5 diluted with water) was added at a volume of 100 μl per well for 96-well plates and 30 μl per well for 384-well plates, and incubated at room temperature for 10 minutes to lyse the cells. A fraction of the cell lysate (30 ul for 96-well, 5 ul for 384-well) was transferred to a new white, opaque plate and Cell Titer-Glo (CTG, Promega, G7572, diluted 2:5 in water) was added and incubated for 20 minutes at room temperature. CTG measures cellular ATP levels as a surrogate for cell viability. The reporter luciferase signal was assayed in the original source plate using Bright-Glo reagent per the manufacturer's protocol (Promega, E1501, 10 ul for 96-well plates, 3 ul for 384-well plates). Assay readouts were performed on a Tecan M1000 Infinite plate reader. For data analysis, the luciferase signal was normalized to the CTG signal to control for number of live cells per well. The Luc/CTG ratio data were then normalized to the in-plate DMSO control to calculate the signal induction fold change. Screening data were processed with CellHTS2 software package to calculate B-score (94)
# KCC2 expression = test: Western blot of KCC2 in cultured human RTT neurons; assay type: cell-based
# Method: Protein samples were collected from cultured brain slices or cultured neurons in 12-well format with RIPA lysis buffer (in mM: 150 NaCl, 25 Tris-HCl, 1 EDTA, 1% NP-40, 1% sodium deoxycholate, 0.1% SDS, with protein kinase inhibitor and protease inhibitor, pH adjusted to 7.6). A sonication step was applied to homogenize tissue and extract protein, followed by a 10 minute centrifugation at 4° C. […] The PVDF membrane was blocked for 30 minutes with 5% milk in TBS+0.1% Tween 20 (TBST), and incubated overnight at 4° C. with primary antibodies diluted in TBST-milk at the following concentrations: KCC2 (1:2000, Millipore), NKCC1 (1:1000, Iowa Hybridoma bank), α-Tubulin (1:4000, Abcam), GAPDH (1:3000, Abcam), Actin (1:2000, Sigma Aldrich #A2066). The membrane was rinsed with TBST three times to wash off excess antibodies, and then incubated in secondary HRP antibodies in TBST-milk at 1:5000 concentration.
# The PVDF membrane was then stripped using the Re-blot plus strong solution (Millipore), and re-immunoblotted for NKCC1 (˜150 kDa) to acquire KCC2/NKCC1 ratio. The area and intensity of protein signal was determined using ImageJ. The relative KCC2 and NKCC1 expression were calculated by normalizing protein signal to GAPDH or Tubulin loading control.
SMILES,B Score [1],further results
"O=c1cc(-c2ccccc2)oc2c(O)c(O)ccc12 [7,8-Dihydroxyflavone]",4.01,B Score [2]: 4.01
"COCc1nc2c([nH]1)c(=O)n(C)c(=O)n2CC(C)C [8-methoxymethyl-IBMX, 8-(Methoxymethyl)-1-methyl-3-(2-methylpropyl)-7H-purine-2,6-dione]",4.8,B Score [2]: 4.8
NC[C@H](CC(=O)O)c1ccc(Cl)cc1 [(R)-Baclofen],6.65,–
O=C(Nc1ccc(S(=O)(=O)C(F)(F)F)cc1)C1=CCN(c2ncccc2C(F)(F)F)CC1 [A784168],–,"effect on Piperine-induced KCC2 expression (KCC2 expression; RTT neurons, co-application with Piperine): eliminated the KCC2-inducing effect of Piperine"
"COc1ccc(CNC(=O)Nc2ncc([N+](=O)[O-])s2)cc1 [AR-AO14418, N-(4-Methoxybenzyl)-N'-(5-nitro-1,3-thiazol-2-yl)urea]",8.69,–
"O=C(O)c1cccc(-c2noc(-c3ccccc3F)n2)c1 [Ataluren, 3-[5-(2-Fluorophenyl)-1,2,4-oxadiazol-3-yl]benzoic acid]",7.43,–
"CCOc1ccn(-c2ccc(F)cc2)c(=O)c1C(=O)Nc1ccc(Oc2ccnc(N)c2Cl)c(F)c1 [BMS 777607, N-(4-(2-amino-3-chloropyridin-4-yloxy)-3-fluorophenyl)-4-ethoxy-1-(4-fluorophenyl)-2-oxo-1,2-dihydropyridine-3-carboxamide]",11.97,–
"O=c1c(-c2ccc(O)cc2)coc2cc(O)ccc12 [Daidzein, 7-hydroxy-3-(4-hydroxyphenyl)-4H-chromen-4-one]",4.64,–
NC(=O)C1CCCc2c1[nH]c1ccc(Cl)cc21 (centres unmarked) [EX-527],–,"effect on Resveratrol-induced KCC2 expression enhancement (KCC2 expression; RTT neurons, additional application to Resveratrol): blocked KCC2 expression enhancement"
"COc1ccc(C(=O)Nc2sc3c(c2C(N)=O)CCC3)cc1OC [FLT3 Inhibitor-1, 2-(3,4-dimethoxybenzamido)-5,6-dihydro-4H-cyclopenta[b]thiophene-3-carboxamide]",–,"KCC2 expression (KCC2 expression; cultured human RTT neurons, Western blot): significant enhancement of KCC2 expression"
"COc1cc2c(Oc3ccc(NC(=O)C4(C(=O)Nc5ccc(F)cc5)CC4)cc3F)ccnc2cc1OCCCN1CCOCC1 [Foretinib, N1′-[3-fluoro-4-[[6-methoxy-7-(3-morpholinopropoxy)-4-quinolyl]oxy]phenyl]-N1-(4-fluorophenyl)cyclopropane-1,1-dicarboxamide]",4.05,B Score [2]: 4.05
"O=c1c(-c2ccc(O)cc2)coc2cc(O)cc(O)c12 [Genistein, 4',5,7-Trihydroxyisoflavone]",5.11,–
"O=C1Nc2ccccc2/C1=C1/Nc2ccccc2C1=O [Indirubin, (3Z)-3-(3-Oxo-1,3-dihydro-2H-indol-2-ylidene)-1,3-dihydro-2H-indol-2-one]",3.73,B Score [2]: 3.73
"O=c1c(O)c(-c2ccc(O)cc2)oc2cc(O)cc(O)c12 [Kaempferol, 3,5,7-Trihydroxy-2-(4-hydroxyphenyl)-4H-chromen-4-one]",3.92,–
"O=c1cc(-c2ccc(O)c(O)c2)oc2cc(O)cc(O)c12 [Luteolin, 2-(3,4-Dihydroxyphenyl)-5,7-dihydroxy-4-chromenone]",11.34,–
"COC1=CC(=O)O[C@@H](/C=C/c2ccc3c(c2)OCO3)C1 [Methysticin, (2R)-2-[(E)-2-(1,3-Benzodioxol-5-yl)ethenyl]-4-methoxy-2,3-dihydropyran-6-one]",7.17,B Score [2]: 7.17
"O=C(Nc1ccc(OC(F)(F)F)cc1)c1sccc1NCc1ccnc2ccccc12 [OSI-930, 3-[(4-quinolinylmethyl)amino]-N-[4-(trifluoromethoxy)phenyl]-2-thiophenecarboxamide]",5.55,–
"Cc1nc2n(c(=O)c1CCN1CCC(c3noc4cc(F)ccc34)CC1)CCCC2O (centres unmarked) [Paliperidone, 9-Hydroxyrisperidone]",–,B Score [2]: 11.03
"CC(C)CC(=O)N[C@H](C(=O)N[C@H](C(=O)N[C@@H](CC(C)C)[C@@H](O)CC(=O)N[C@@H](C)C(=O)N[C@@H](CC(C)C)[C@@H](O)CC(=O)O)C(C)C)C(C)C [Pepstatin, Isovalery-Val-Val-Sta-Ala-Sta] (Isovaleryl-VV[Sta]A[Sta]-OH)",8.64,–
"O=c1c(O)c(-c2ccc(O)c(O)c2)oc2cc(O)cc(O)c12 [Quercetin-2H2O, 2-(3,4-dihydroxyphenyl)-3,5,7-trihydroxy-4H-chromen-4-one]",7.76,–
"CN(C)c1ccc(C=C2C(=O)Nc3ccccc32)cc1 [SU-4312, 3-(4-Dimethylaminobenzylidenyl)-2-indolinone]",–,B Score [2]: 3.55
"O=C1CCc2c(ccc3ccccc23)O1 [Splitomycin, 1,2-Dihydro-3H-naphtho[2,1-b]pyran-3-one]",9.79,–
"CC(C)[C@@H]1NC(=O)[C@H](C)OC(=O)[C@@H](C(C)C)NC(=O)[C@@H](C(C)C)OC(=O)[C@H](C(C)C)NC(=O)[C@H](C)OC(=O)[C@@H](C(C)C)NC(=O)[C@@H](C(C)C)OC(=O)[C@H](C(C)C)NC(=O)[C@H](C)OC(=O)[C@@H](C(C)C)NC(=O)[C@@H](C(C)C)OC1=O [Valinomycin, Cyclo-(L-Val-D-HyIva-D-Val-L-Lac-)3]",4.49,–
"CCC(C)C(CC)C(N)=O (centres unmarked) [Valnoctamide, 2-ethyl-3-methyl-pentanamide]",14.99,–
